According to ChEMBL document CHEMBL1143710, “Synthesis, antifungal and antimicrobial activity of alkylphospholipids” (Bioorg Med Chem, 2007):
Converted amounts (≈) assume the structure as drawn. The source made the active and inactive calls. The calls are words filed in the database; no cut-off is given here.

Tests used:
Cryptococcus neoformans = test: Antifungal activity against Cryptococcus neoformans ATCC 90112; assay type: functional
Candida albicans = test: Antifungal activity against Candida albicans ATCC 10231; assay type: functional
[1] = Toxicity assessed as haemolytic activity against human erythrocytes at 350 uM; assay type: cell-based, Erythrocyte; details: read-out: Activity
[2] = Toxicity assessed as haemolytic activity against human erythrocytes at 175 uM; assay type: cell-based, Erythrocyte; details: read-out: Activity
[3] = Toxicity assessed as haemolytic activity against human erythrocytes at 88 uM; assay type: cell-based, Erythrocyte; details: read-out: Activity
[4] = Toxicity assessed as haemolytic activity against human erythrocytes at 44 uM; assay type: cell-based, Erythrocyte; details: read-out: Activity
[5] = Toxicity assessed as haemolytic activity against human erythrocytes at 17.5 uM; assay type: cell-based, Erythrocyte; details: read-out: Activity
[6] = Toxicity assessed as haemolytic activity against human erythrocytes at 3.5 uM; assay type: cell-based, Erythrocyte; details: read-out: Activity
[7] = target: T1, Phospholipase B (Cryptococcus neoformans) (UniProt Q9P8P2); test: Inhibition of phospholipase B activity of Cryptococcus neoformans var. grubi H99 secreted PLB1 by radiometric assay method
T1 sequence (whole entry): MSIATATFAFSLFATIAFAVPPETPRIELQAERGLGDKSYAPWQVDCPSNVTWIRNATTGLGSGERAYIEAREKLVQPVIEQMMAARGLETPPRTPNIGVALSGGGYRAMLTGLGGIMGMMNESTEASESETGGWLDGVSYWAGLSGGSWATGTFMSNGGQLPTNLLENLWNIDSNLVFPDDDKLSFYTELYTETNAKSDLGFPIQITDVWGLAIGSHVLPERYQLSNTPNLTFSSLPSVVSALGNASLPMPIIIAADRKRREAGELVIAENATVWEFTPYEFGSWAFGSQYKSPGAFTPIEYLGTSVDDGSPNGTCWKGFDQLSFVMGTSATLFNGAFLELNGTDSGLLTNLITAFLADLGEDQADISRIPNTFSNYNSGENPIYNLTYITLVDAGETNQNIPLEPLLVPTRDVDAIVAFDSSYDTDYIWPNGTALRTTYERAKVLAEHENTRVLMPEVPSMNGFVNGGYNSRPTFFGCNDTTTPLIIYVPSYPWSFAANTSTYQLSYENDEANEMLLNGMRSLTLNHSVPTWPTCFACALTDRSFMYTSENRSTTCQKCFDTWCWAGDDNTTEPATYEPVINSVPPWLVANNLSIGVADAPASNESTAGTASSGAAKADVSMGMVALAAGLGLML

[8] = target: T1, Phospholipase B (Cryptococcus neoformans); test: Inhibition of […] activity of Cryptococcus neoformans var. grubi H99 secreted PLB1 at 25 uM by radiometric assay method
Escherichia coli = test: Antibacterial activity against Escherichia coli ATCC 25922 after 24 hrs; assay type: functional; details: ATCC 25922, 24 h
Staphylococcus aureus [9] = test: Antibacterial activity against Staphylococcus aureus ATCC 25923 after 24 hrs; assay type: functional; details: ATCC 25923, 24 h
Staphylococcus aureus [10] = test: Antibacterial activity against methicillin-resistant Staphylococcus aureus after 24 hrs; assay type: functional
Enterococcus = test: Antibacterial activity against vancomycin-resistant Enterococcus ATCC 51299 after 24 hrs; assay type: functional; details: ATCC 51299, 24 h
[11] = target: T1, Phospholipase B (Cryptococcus neoformans); test: Inhibition of […] activity of Cryptococcus neoformans var. grubi H99 secreted PLB1 at 250 uM by radiometric assay method
[12] = target: T1, Phospholipase B (Cryptococcus neoformans); test: Inhibition of lysophosphatidic acid acyltransferase activity of Cryptococcus neoformans var. grubi H99 secreted PLB1 at 250 uM by radiometric assay method
[13] = target: T1, Phospholipase B (Cryptococcus neoformans); test: Inhibition of lysophosphatidic acid acyltransferase activity of Cryptococcus neoformans var. grubi H99 secreted PLB1 at 25 uM by radiometric assay method
Streptococcus pneumoniae = test: Antibacterial activity against Streptococcus pneumoniae ATCC 46919 after 24 hrs; assay type: functional; details: ATCC 46919, 24 h
Pseudomonas aeruginosa = test: Antibacterial activity against Pseudomonas aeruginosa ATCC 27853 after 24 hrs; assay type: functional; details: ATCC 27853, 24 h

Row | SMILES | MIC (Cryptococcus neoformans) [µM] | MIC (Candida albicans) [µM] | hemolysis at 350 µM [1] [%] | hemolysis at 175 µM [2] [%] | hemolysis at 88 µM [3] [%] | hemolysis at 44 µM [4] [%] | hemolysis at 17.5 µM [5] [%] | hemolysis at 3.5 µM [6] [%] | Activity [7] | Activity [8] | MIC (Escherichia coli) [µM] | MIC (Staphylococcus aureus [9]) [µM] | MIC (Staphylococcus aureus [10]) [µM] | MIC (Enterococcus) [µM] | Activity [11] | Activity [12] | Activity [13] | MIC (Streptococcus pneumoniae) [µM] | MIC (Pseudomonas aeruginosa) [µM]
1 | CC(C)[C@H](NC(=O)CCCCCOP(=O)([O-])OCC[N+](C)(C)C)C(N)=O | > 350 | > 350 | 0 | 0 | 0 | 0 | 0 | 0 | – | – | – | – | – | – | – | – | – | – | –
2 | CCCCCCCCCNC(=O)CCCCCOP(=O)([O-])OCC[N+](C)(C)C | > 350 | > 350 | – | 0 | 0 | 0 | 0 | 0 | inactive | inactive | > 350 | > 350 | > 350 | > 350 | – | – | – | – | –
3 | CCCCCCCC/C=C/CCCCCCCCOP(=O)([O-])OCC[N+](C)(C)C [ELAIDYLPHOSPHOCHOLINE] | 2.75 (≈ 1.19 µg/mL) | 2.75 (≈ 1.19 µg/mL) | 100 | 100 | 50 | 0 | 0 | 0 | – | – | > 350 | 22 (≈ 9.54 µg/mL) | 22 (≈ 9.54 µg/mL) | 22 (≈ 9.54 µg/mL) | – | – | – | – | –
4 | CCCCCCCCCCCCCCCCCCOP(=O)([O-])OCC[P+](C)(C)C | 2.75 (≈ 1.24 µg/mL) | 2.75 (≈ 1.24 µg/mL) | – | 100 | 97 | 40 | 2 | 0 | – | inactive | – | – | – | – | Active | Active | – | – | –
5 | CCCCCCCCCCCCCCCCCCOCC(O)COP(=O)([O-])OCC[N+](C)(C)C (stereo unspecified) | 88 (≈ 44.9 µg/mL) | > 350 | 100 | 100 | 86 | 10 | 0 | 0 | – | – | > 350 | 22 (≈ 11.2 µg/mL) | 11 (≈ 5.61 µg/mL) | 11 (≈ 5.61 µg/mL) | – | – | – | – | –
6 | CCCCCCCCCCCCCCCCCCOP(=O)([O-])OCC[N+](C)(C)C [OCTADECYLPHOSPHONOCHOLINE] | 1.4 (≈ 0.61 µg/mL) | 1.4 (≈ 0.61 µg/mL) | 100 | 100 | 92 | 60 | 0 | 0 | – | inactive | > 350 | 22 (≈ 9.58 µg/mL) | 22 (≈ 9.58 µg/mL) | – | Active | Active | – | – | –
7 | CCCCCCCCCCCCCCCCOP(=O)([O-])OCC[N+](C)(C)C [MILTEFOSINE] | 2.75 (≈ 1.12 µg/mL) | 5.5 (≈ 2.24 µg/mL) | 100 | 95 | 25 | 5 | 0 | 0 | – | inactive | > 350 | 44 (≈ 17.9 µg/mL) | 22 (≈ 8.97 µg/mL) | 44 (≈ 17.9 µg/mL) | Active | Active | Active | 11 (≈ 4.48 µg/mL) | > 600
8 | CCCCCCCCCCCCCCCCCC(=O)NCC(COP(=O)([O-])OCC[N+](C)(C)C)OC (stereo unspecified) | 22 (≈ 11.8 µg/mL) | 5.5 (≈ 2.95 µg/mL) | 100 | 100 | 56 | 5 | 0 | 0 | – | – | > 350 | 44 (≈ 23.6 µg/mL) | 11 (≈ 5.9 µg/mL) | 22 (≈ 11.8 µg/mL) | – | – | – | – | –
9 | CCCCCCCCCOC(=O)CCCCCOP(=O)([O-])OCC[N+](C)(C)C | 175 (≈ 74.1 µg/mL) | > 350 | – | 0 | 0 | 0 | 0 | 0 | – | – | – | – | – | – | – | – | – | – | –
10 | CCCCCCCCCCCCCCCCCCOCC(COP(=O)([O-])OCC[N+](C)(C)C)OC (stereo unspecified) [EDELFOSINE] | > 350 | 5.5 (≈ 2.88 µg/mL) | 100 | 100 | 83 | 13 | 0 | 0 | – | – | > 350 | 44 (≈ 23 µg/mL) | 11 (≈ 5.76 µg/mL) | – | – | – | – | – | –
11 | CCCCCCCC/C=C\CCCCCCCCCCCCOP(=O)([O-])OCC[N+](C)(C)C [ERUFOSINE] | 22 (≈ 10.8 µg/mL) | 44 (≈ 21.5 µg/mL) | 100 | 90 | 15 | 0 | 0 | 0 | – | – | > 350 | > 350 | 22 (≈ 10.8 µg/mL) | 11 (≈ 5.39 µg/mL) | – | – | – | – | –
12 | C[C@@H]1[C@H](O)[C@@H](C)/C=C/C=C/C=C/C=C/C=C/C=C/C=C/[C@H](O[C@@H]2O[C@H](C)[C@@H](O)[C@H](N)[C@@H]2O)C[C@@H]2O[C@](O)(C[C@@H](O)C[C@@H](O)[C@H](O)CC[C@@H](O)C[C@@H](O)CC(=O)O[C@H]1C)C[C@H](O)[C@H]2C(=O)O [AMPHOTERICIN B] | 0.54 (≈ 0.499 µg/mL) | 0.54 (≈ 0.499 µg/mL) | – | – | – | – | – | – | – | – | – | – | – | – | – | – | – | – | –
13 | CCCCCCCCCCCCOP(=O)([O-])OCC[N+](C)(C)C | 175 (≈ 61.5 µg/mL) | 350 (≈ 123 µg/mL) | – | 0 | 0 | 0 | 0 | 0 | inactive | inactive | – | – | – | – | – | – | – | – | –
14 | C[N+](C)(C)CCOP(=O)([O-])OCCCCCC(=O)NC12CC3CC(CC(C3)C1)C2 | > 350 | > 350 | – | – | – | – | – | – | – | – | – | – | – | – | – | – | – | – | –
15 | CC1(C)S[C@@H]2[C@H](NC(=O)[C@H](N)c3ccc(O)cc3)C(=O)N2[C@H]1C(=O)O [AMOXICILLIN] | – | – | – | – | – | – | – | – | – | – | 22 (≈ 8.04 µg/mL) | 0.7 (≈ 0.256 µg/mL) | – | – | – | – | – | – | –
16 | CCCCC(CC)CNC(=O)CCCCCOP(=O)([O-])OCC[N+](C)(C)C (stereo unspecified) | > 350 | > 350 | – | 0 | 0 | 0 | 0 | 0 | – | – | > 350 | > 350 | > 350 | > 350 | – | – | – | – | –
17 | CN[C@H](CC(C)C)C(=O)N[C@H]1C(=O)N[C@@H](CC(N)=O)C(=O)N[C@H]2C(=O)N[C@H]3C(=O)N[C@H](C(=O)N[C@H](C(=O)O)c4cc(O)cc(O)c4-c4cc3ccc4O)[C@H](O)c3ccc(c(Cl)c3)Oc3cc2cc(c3O[C@@H]2O[C@H](CO)[C@@H](O)[C@H](O)[C@H]2O[C@H]2C[C@](C)(N)[C@H](O)[C@H](C)O2)Oc2ccc(cc2Cl)[C@H]1O [VANCOMYCIN] | – | – | – | – | – | – | – | – | – | – | – | – | – | 0.7 (≈ 1.01 µg/mL) | – | – | – | – | –
